Assay results from paper PMC7773887 (Computational and Structural Biotechnology Journal, 2020).

Assays:
[1] = biological target: CMY-10 (Klebsiella aerogenes, UniProt Q99QC1); assay: nitrocefin hydrolysis assay at […] inhibitor; assay type: biochemical; conditions: read-out: % inhibition at 200 μM
[2] = biological target: AmpC BER (Escherichia coli, UniProt A7TUE6); assay: nitrocefin hydrolysis steady-state kinetics, Lineweaver-Burk; assay type: biochemical
Sequence of AmpC BER (A7TUE6 20-379): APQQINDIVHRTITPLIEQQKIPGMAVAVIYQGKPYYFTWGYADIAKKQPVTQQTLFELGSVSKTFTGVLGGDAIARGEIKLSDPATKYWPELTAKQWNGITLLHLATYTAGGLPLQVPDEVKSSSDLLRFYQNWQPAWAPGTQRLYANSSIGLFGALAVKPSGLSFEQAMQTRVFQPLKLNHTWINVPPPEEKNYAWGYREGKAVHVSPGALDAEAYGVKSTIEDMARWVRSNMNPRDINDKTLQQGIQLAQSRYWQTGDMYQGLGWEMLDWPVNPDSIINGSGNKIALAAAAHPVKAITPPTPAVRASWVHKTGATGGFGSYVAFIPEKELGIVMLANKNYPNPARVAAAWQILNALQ

Sequence of CMY-10 (Q99QC1 24-382): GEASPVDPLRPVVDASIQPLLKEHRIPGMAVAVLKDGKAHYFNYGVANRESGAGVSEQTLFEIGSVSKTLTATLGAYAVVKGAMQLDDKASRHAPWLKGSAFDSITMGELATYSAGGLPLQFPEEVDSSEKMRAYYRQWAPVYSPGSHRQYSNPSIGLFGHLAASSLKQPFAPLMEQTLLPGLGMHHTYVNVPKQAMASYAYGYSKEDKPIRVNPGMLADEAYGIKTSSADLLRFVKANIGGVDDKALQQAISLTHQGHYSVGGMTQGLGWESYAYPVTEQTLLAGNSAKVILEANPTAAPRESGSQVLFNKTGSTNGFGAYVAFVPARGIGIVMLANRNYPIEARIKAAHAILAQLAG

Structure (SMILES): C=C1CCC[C@@H]2[C@@](C)(CCC(CCCc3ccoc3)COS(=O)(=O)O)[C@H](C)CC[C@]12C (some centres unmarked) [Hali 5, halisulfate 5]
- inhibition at 200 µM [1]: ~90%
- Ki [2]: 5.87 µM
